Experiments:
DNA-dependent ATPase A = molecular target: T1, DNA-dependent ATPase A (Bos taurus, UniProt Q9TTA5); experiment: Inhibition of ATP hydrolysis by DNA-dependent ATPase A (overexpressed 82 kDa ADAAD); format: biochemical, bovine; conditions: Ki, Table 4; determined in the presence of effector
T1 sequence (Q9TTA5 222-940): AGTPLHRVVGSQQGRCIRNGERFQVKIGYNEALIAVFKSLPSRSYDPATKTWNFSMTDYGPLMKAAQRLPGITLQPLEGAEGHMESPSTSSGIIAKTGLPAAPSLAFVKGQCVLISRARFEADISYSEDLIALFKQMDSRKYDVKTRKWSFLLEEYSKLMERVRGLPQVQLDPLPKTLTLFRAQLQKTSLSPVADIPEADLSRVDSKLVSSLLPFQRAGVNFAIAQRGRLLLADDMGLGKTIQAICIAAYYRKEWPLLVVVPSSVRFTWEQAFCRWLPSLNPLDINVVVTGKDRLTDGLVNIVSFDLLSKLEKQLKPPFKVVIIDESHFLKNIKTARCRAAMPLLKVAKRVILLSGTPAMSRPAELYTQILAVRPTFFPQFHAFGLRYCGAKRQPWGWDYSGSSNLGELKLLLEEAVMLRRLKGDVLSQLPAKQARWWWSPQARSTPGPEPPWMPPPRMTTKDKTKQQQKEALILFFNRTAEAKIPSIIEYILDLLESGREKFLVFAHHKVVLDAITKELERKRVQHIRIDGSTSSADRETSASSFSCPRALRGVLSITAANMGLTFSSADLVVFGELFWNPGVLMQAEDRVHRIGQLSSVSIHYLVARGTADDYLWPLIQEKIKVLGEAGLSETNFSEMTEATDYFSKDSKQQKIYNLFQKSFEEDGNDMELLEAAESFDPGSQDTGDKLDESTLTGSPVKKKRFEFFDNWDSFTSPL
Method: Enzyme (0.2 units (one unit is the amount of enzyme required to hydrolyze 1 μmole of adenosine triphosphate per min)) was mixed with 50 mM Tris-SO4, pH 7.5, 1 mM MgCl2, 5 mM β-mercaptoethanol, 0.5 mg/mL bovine serum albumin, 2 mM phosphoenol pyruvate, 0.03 mg/mL pyruvate kinase, 10 nM of stem-loop DNA, and 2 mM adenosine triphosphate in a total volume of 100 μL. The reaction was typically incubated at 37° C. for 10-60 minutes. At the end of the designated time, 225 μL of 10% sodium dodecyl sulfate and 350 μL of water were added to stop the reaction. Color development requires the addition of two reagents: 180 μL of reagent A (prepared by mixing equal volumes of 60 to 70% perchloric acid and 5% ammonium molybdate in water) and 45 μL of reagent B (0.2 g 1:2:4 aminonaphthol sulfonic acid, 12.0 g sodium metabisulfite, and 2.4 g sodium sulfite dissolved in 100 mL of water) was added. The reaction was incubated at room temperature for 10 minutes and the absorbance was read at 720 nm. The color development was time-dependent and therefore samples must be read at exactly 10 minutes.
Enzyme (0.2 units (one unit is the amount of enzyme required to hydrolyze 1 μmole of adenosine triphosphate per min)) was mixed with 25 mM Tris-acetate pH 7.5, 6 mM Mg(acetate)2, 60 mM KCl, 5 mM β-mercaptoethanol, 3 mM phosphoenol pyruvate, 10 units/mL pyruvate kinase, 10 units/mL lactate dehydrogenase 10 nM DNA, 2 mM adenosine triphosphate, and 0.1 mg/mL NADH in a final volume of 1 mL. The progress of the reaction at 37° C. was monitored at 340 nm using an HP8452 spectrophotometer.
Enzyme (0.2 U) was mixed with 50 mM Tris-SO4, pH 7.5, 1 mM MgCl2, 5 mM β-mercaptoethanol, 0.5 mg/mL bovine serum albumin, 2 mM phosphoenol pyruvate, 0.03 mg/mL pyruvate kinase, 10 nM of stem-loop DNA, and 2 mM adenosine triphosphate in a total volume of 50 μL. Three (3) μCi of [^32P]-γ-adenosine triphosphate was added to the reaction and typical incubation was for 60 minutes 37° C. EDTA (25 mM) was added to stop the reaction. 10 μL of the reaction was spotted on a poly(ethylenimine)-cellulose plate. The plate was developed using 0.9M LiCl and 7M urea as solvent system. The plate was allowed to dry and autoradiographed either using X-OMAT film or a phosphorimager. […]

DNA-independent ATPases = experiment: Effect on DNA-independent ATPases; format: biochemical
Method: (§1) A number of different ATPases, both DNA-dependent and DNA-independent, were analyzed for their behavior with respect to these drugs.

DNA-dependent ATPases = experiment: Effect of millimolar neomycin on DNA-dependent ATPases; format: biochemical; conditions: millimolar concentrations
Method: as §1
This inhibition is directly attributable to the positive charge that the aminoglycosides carry and thus the sequestering of the DNA (negatively charged) away from the enzyme (the binding of kanamycin directly to DNA has been confirmed—data not shown). In addition, the phosphoneomycin has differing effects on DNA-dependent ATPases from various sources and of various function.

PC3 cell line = experiment: MTS cell survival assay, PC3 prostate cancer cells; format: cell-based, human
Method: (§2) The effect of phosphoaminoglycosides on tumor cell growth was tested in cell culture inhibition studies. 5000 cells were plated in a total volume of 50 μl in a 96 well titer plate. After 24 hours, 50 μl of media and drugs, to the required final concentration, were added. The plates were incubated at 37° C. for 5 days. On the 5th day, the fraction of surviving cells was estimated using a non-radioactive cell proliferation assay (CellTiter 96 AQueous Cell Proliferation Assay from Promega).
(§3) This is a colorimetric assay that determines the number of viable cells. The assay measures the bioreduction of a tetrazolium compound (3-(4,5-dimethylthiazol-2-yl)-5-(3-carboxymethoxyphenyl)-2-(4-sulfophenyl)-2H-tetrazolium, inner salt; MTS), via an electron coupling reagent (phenazine methosulfate; PMS), to formazan, which is soluble in the tissue culture medium. The absorbance of formazan at 490 nm can be measured from the 96 well assay plate without additional processing. The conversion of MTS into the aqueous soluble formazan is accomplished by dehydrogenase enzymes found in metabolically active cells. The quantity of formazan product as measured by the amount of 490 nm absorbance is directly proportional to the number of living cells in culture. 100 μl of the PMS reagent (Promega) was mixed with 2.0 ml of MTS solution (Promega). 20 μl of PMS/MTS solution was added to the cells and the plates were incubated at 37° C. for 2 hours before measuring the absorbance at 490 nm.
In an initial experiment, four drugs (A-kanamycin, B-phosphokanamycin, C-neomycin, and D-phosphoneomycin) were added to prostate cancer cell cultures in a blind fashion. Two prostate cancer cell lines were incubated with each of the drugs and assayed for cell survivability using the MTS assay (Promega).
5000 cells were grown overnight in media and each respective drug (A-kanamycin, B-phosphokanamycin, C-neomycin, and D-phosphoneomycin) was added on the second day. […] Each point is the average of readings from three wells.

MCF-7 = experiment: MTS cell survival assay, MCF-7 breast cancer cells; format: cell-based; conditions: MCF-7, FIG. 9
Method: as §2
as §3, with “100 μl of the PMS reagent (Promega) was mixed with 2.0 ml of MTS solution (Promega).” left out, “nm. […]” for “nm.”

MDA-MB-231 = experiment: MTS cell survival assay, MDA-MB-231 breast cancer cells; format: cell-based; conditions: MDA-MB-231, FIG. 9
Method: as §2
as §3, with “100 μl of the PMS reagent (Promega) was mixed with 2.0 ml of MTS solution (Promega).” left out, “nm. […]” for “nm.”

How did the Ki (DNA-dependent ATPase A) turn out when `NCC[C@H](O)C(=O)N[C@@H]1C[C@H](N)[C@@H](O[C@H]2O[C@H](CN)[C@@H](O)[C@H](OP(=O)(O)O)[C@H]2O)[C@H](O)[C@H]1O[C@H]1O[C@H](CO)[C@@H](O)[C@H](N)[C@H]1O` [3′ phosphorylated amikacin] was run?
The Ki was 167 nM.

`CN[C@@H]1[C@@H](O)[C@@H](O[C@@H]2[C@@H](O)[C@H](O[C@H]3O[C@H](CO)[C@@H](O)[C@H](OP(=O)(O)O)[C@H]3N)[C@@H](N)C[C@H]2N)OC[C@H]1O` [3′ phosphorylated gentamicin] was tested. Which Ki (DNA-dependent ATPase A) did it give?
The Ki was 219 nM.

Which Ki (DNA-dependent ATPase A) does the source give for `CN[C@@H]1[C@@H](O)[C@@H](O[C@@H]2[C@@H](O)[C@H](O[C@H]3O[C@H]([C@@H](C)O)[C@@H](O)[C@H](OP(=O)(O)O)[C@H]3N)[C@@H](N)C[C@H]2N)OC[C@]1(C)O` [phosphogeneticin, 3′-phosphogeneticin] here?
The Ki was 191 nM.

With “Neomycin B & C (^˜15% Neomycin C) [reference compound]” as the compound, how does the “effect on DNA-independent ATPases (in words)” value (DNA-independent ATPases) read?
The value was “neither affected”.

And the “inhibition of all DNA-dependent ATPases (in words)” value (DNA-dependent ATPases)?
Its value is “some inhibition”.

And the “effect on PC3 cells (in words)” value (PC3 cell line; FIG. 8, day five)?
Its value is “neither kanamycin nor neomycin had any effect”.

And the “effect on PC3 cell survival (in words)” value (PC3 cell line; concentrations in excess of 1 mM)?
Its value is “increased cell survival”.

And the “effect on cell growth (in words)” value (MCF-7)?
The value was “no effect”.

What about the “effect on cell growth (in words)” value (MDA-MB-231) of the same compound?
Its value is “no effect”.

Source: US6573060B1, “Methods and compositions for targeting DNA metabolic processes using aminoglycoside derivatives” (University of Virginia Patent Foundation, priority 1997, dated 2003)
